The results in this text go back to PubChem BioAssay (NCI).

Some test systems named below: NCI-H23 lung; KM12 colon; HCC-2998 colon; IGROV1 ovarian; UACC-62 melanoma; HL-60(TB) leukemia; LOX IMVI melanoma.
Holding throughout (experiment): growth of human tumour cells (NCI), 48 h

SMILES strings stand for the structures.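 Grown in 96-well plates, cells were treated for 48 hours with each compound at five concentrations. Insufficient inhibition: endpoint recorded as highest concentration tested. Abbreviation: GI50, concentration required for 50% inhibition of growth. TGI denotes the concentration required for complete inhibition of growth.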 Bounds are passed on as bounds.

Consider `CC(=O)/C=C/c1ccc(C)cc1`, for which the TGI in the assay with NCI-H23 lung, in the assay on KM12 colon, with HCC-2998 colon, in the assay with IGROV1 ovarian, in the assay on UACC-62 melanoma and in the assay with HL-60(TB) leukemia was over 100 µM each time. In the assay on LOX IMVI melanoma, this compound showed a TGI of over 100 µM.
As for `O=c1c2ccccc2nc(-c2cccc(Cl)c2)n1NCC1(O)OCC(O)C(O)C1O` (stereo not given), the TGI in the assay on NCI-H23 lung, in the assay on KM12 colon, with UACC-62 melanoma, with HL-60(TB) leukemia and with LOX IMVI melanoma was over 100 µM each time.
Consider `O=C(/C=C/c1ccccc1Cl)c1ccc(Cl)cc1Cl`, for which the TGI in the assay on NCI-H23 lung stood at 37.9 µM; with KM12 colon, 24.1 µM; in the assay on HCC-2998 colon, 33.1 µM; in the assay on IGROV1 ovarian it was 27.6 µM; in the assay on UACC-62 melanoma it was 27.6 µM; with HL-60(TB) leukemia it was 46.3 µM.
With `Cc1ccc(Oc2ccc([N+](=O)[O-])cc2[N+](=O)[O-])c(C)c1`, the TGI in the assay with NCI-H23 lung is over 100 µM; in the assay with HCC-2998 colon, over 100 µM; with IGROV1 ovarian, over 100 µM; in the assay with UACC-62 melanoma, over 100 µM; in the assay with HL-60(TB) leukemia, 65.2 µM.
On to `COc1cc2c(cn1)[nH]c1ccccc12`, for which the TGI in the assay with NCI-H23 lung, in the assay with KM12 colon, in the assay with HCC-2998 colon, in the assay with IGROV1 ovarian, in the assay on UACC-62 melanoma and with HL-60(TB) leukemia was over 100 µM in each case. Moreover, the TGI in the assay with LOX IMVI melanoma is over 100 µM.
Regarding `C1=Nc2ccccc2C=Nc2ccccc2C=Nc2ccccc2C=Nc2ccccc21.[Cl-].[Pt+2]`, the GI50 with IGROV1 ovarian is 18.8 µM; in the assay with UACC-62 melanoma, 21.1 µM; in the assay on HL-60(TB) leukemia, 3.95 µM; with LOX IMVI melanoma, 29.9 µM. Further, the TGI in the assay on IGROV1 ovarian is 49.5 µM; with UACC-62 melanoma, 87.8 µM; with HL-60(TB) leukemia it was 22.4 µM; in the assay with LOX IMVI melanoma, over 100 µM.
As for `Cc1c2c(cc3c(=O)ccn(CCN(C)C)c13)c(=O)ccn2CCN(C)C`, the TGI was found to be 33.9 µM in the assay with NCI-H23 lung; 13.9 µM in the assay with KM12 colon; 20.3 µM in the assay with HCC-2998 colon; 37 µM in the assay with IGROV1 ovarian; 31.6 µM in the assay on UACC-62 melanoma; 41.6 µM with HL-60(TB) leukemia. Besides, the TGI in the assay on LOX IMVI melanoma stood at 25.3 µM.
Consider `Cc1cccc(C)c1NC(=O)CCc1n[nH]c(=S)o1`, for which the TGI in the assay on NCI-H23 lung, with KM12 colon, with HCC-2998 colon, in the assay on IGROV1 ovarian, in the assay with UACC-62 melanoma and with HL-60(TB) leukemia was over 100 µM in each case.
Turning to `Cc1ccc2c(c1)CNc1ccc(C)cc1CN2`, the TGI in the assay on NCI-H23 lung, in the assay on KM12 colon, in the assay with IGROV1 ovarian, in the assay with UACC-62 melanoma, in the assay with HL-60(TB) leukemia and in the assay on LOX IMVI melanoma was over 100 µM each time.
In the case of `COc1ccc(-c2c(N)[n+]([O-])c3ccccc3[n+]2[O-])cc1OC`, the TGI with NCI-H23 lung, in the assay on KM12 colon, in the assay on IGROV1 ovarian and in the assay on HL-60(TB) leukemia was over 100 µM throughout.
Turning to `COc1cc(Nc2nc3ccc(C(F)(F)F)cc3nc2-c2ccccc2)cc(OC)c1OC`, the TGI was over 100 µM in the assay with NCI-H23 lung; over 100 µM in the assay on KM12 colon; 25.9 µM in the assay with HCC-2998 colon; over 100 µM in the assay with IGROV1 ovarian; over 100 µM with UACC-62 melanoma; 15.5 µM in the assay on LOX IMVI melanoma.
On to `NNC(=O)/C(NC(=O)c1ccccc1)=C(\N)c1ccc(Cl)cc1`, for which the TGI in the assay with NCI-H23 lung, in the assay on KM12 colon, in the assay with HCC-2998 colon, with IGROV1 ovarian, with UACC-62 melanoma and in the assay with HL-60(TB) leukemia was over 100 µM in each case. This compound also had a TGI in the assay with LOX IMVI melanoma of over 100 µM.
Consider `N#CC1C2CCC3(CC2CCN1C(=O)c1ccccc1)OCCO3` (stereo not given), for which the TGI with NCI-H23 lung, with KM12 colon, in the assay on HCC-2998 colon, in the assay on IGROV1 ovarian, in the assay with UACC-62 melanoma and in the assay with HL-60(TB) leukemia was over 100 µM throughout. In the assay with LOX IMVI melanoma, the TGI was over 100 µM.
With `O=C(NCc1ccncc1)C1COc2cc(-c3cc(=O)c4ccccc4o3)ccc2O1` (stereo not given), the TGI in the assay with NCI-H23 lung, in the assay with KM12 colon, with HCC-2998 colon, in the assay on IGROV1 ovarian, in the assay on UACC-62 melanoma and in the assay with HL-60(TB) leukemia was over 100 µM each time. Also, the TGI with LOX IMVI melanoma is over 100 µM.
As to `CC(C)CN(CC(C)C)C(=O)C1CCCC[C@@H]1C(=O)O` (stereo not given in full), the TGI in the assay on NCI-H23 lung, in the assay on KM12 colon, with HCC-2998 colon, in the assay with IGROV1 ovarian, with UACC-62 melanoma and in the assay with HL-60(TB) leukemia was over 100 µM each time. For the same compound, in the assay on LOX IMVI melanoma, the TGI was over 100 µM.
With `O=c1c2cccnc2ncn1CCN1CCCC1`, the TGI with NCI-H23 lung, with KM12 colon, in the assay with HCC-2998 colon, with IGROV1 ovarian, in the assay on UACC-62 melanoma and in the assay on LOX IMVI melanoma was over 100 µM in each case.
`Cn1cnc([N+](=O)[O-])c1Sc1nnnn1-c1ccccc1`: the TGI in the assay with NCI-H23 lung came out at 34.7 µM; with KM12 colon it was 35.2 µM; in the assay with HCC-2998 colon, 32.5 µM; with IGROV1 ovarian it was 33.7 µM; with UACC-62 melanoma, 27.4 µM; in the assay on LOX IMVI melanoma, 19.1 µM.
As for `CC/C=C/c1cc2cc[nH]c2c2c1C(C)C[C@@H]2C` (stereo not given in full), the TGI in the assay with NCI-H23 lung is 58.6 µM; in the assay with KM12 colon it was 40.8 µM; with IGROV1 ovarian, over 100 µM; in the assay with UACC-62 melanoma, 41.8 µM; in the assay with HL-60(TB) leukemia, 58.3 µM; with LOX IMVI melanoma it was 31 µM.
In the case of `C=CCn1cc(C(=O)NC(=O)NCCCCCOC(=O)CCCCCCCCCCC(=O)OCCCCCNC(=O)NC(=O)c2cn(CC=C)c(=O)n(C)c2=O)c(=O)n(C)c1=O`, the TGI in the assay on NCI-H23 lung, in the assay on KM12 colon, in the assay with HCC-2998 colon, with IGROV1 ovarian, in the assay with UACC-62 melanoma and in the assay with HL-60(TB) leukemia was over 100 µM each time. Moreover, the TGI in the assay with LOX IMVI melanoma was over 100 µM.
In the case of `CC1(O)CCC2(C#N)CCC1C2O` (stereo not given), the TGI in the assay with KM12 colon was over 100 µM; in the assay with HCC-2998 colon it was over 100 µM; in the assay on IGROV1 ovarian, over 100 µM; in the assay on UACC-62 melanoma it was over 100 µM; with HL-60(TB) leukemia, over 100 µM; with LOX IMVI melanoma it was 41.9 µM.
On to `S=c1nc(N2CCCCC2)ss1`, for which the TGI in the assay with NCI-H23 lung was over 100 µM; in the assay on KM12 colon, 33.9 µM; in the assay on HCC-2998 colon, 30 µM; in the assay on IGROV1 ovarian, 58.5 µM; in the assay on UACC-62 melanoma, 35.4 µM; in the assay on HL-60(TB) leukemia, 44.3 µM.
For the compound `C1COCCOCCOCCOCCO1.CC(=O)[CH-]C(C)=O.CC(=O)[CH-]C(C)=O.CC(=O)[CH-]C(C)=O.[V]`, the GI50 in the assay with NCI-H23 lung is 15.6 µM; with KM12 colon, 16.8 µM; in the assay on HCC-2998 colon, 19.6 µM; in the assay on IGROV1 ovarian, 4.79 µM; with UACC-62 melanoma, 4.25 µM; with HL-60(TB) leukemia, 20.1 µM. Also, the GI50 in the assay with LOX IMVI melanoma is 15.1 µM. Further, the TGI is 31.6 µM in the assay with NCI-H23 lung; 37 µM in the assay with KM12 colon; 40.1 µM in the assay with HCC-2998 colon; 22.5 µM in the assay with IGROV1 ovarian; 17.4 µM in the assay with UACC-62 melanoma; 42.2 µM in the assay with HL-60(TB) leukemia. The compound further had a TGI in the assay on LOX IMVI melanoma of 29.6 µM.
Consider `CSc1ncnc2c1CCN2`, for which the GI50 in the assay on NCI-H23 lung, in the assay with KM12 colon, in the assay with HCC-2998 colon, in the assay on IGROV1 ovarian, with UACC-62 melanoma and in the assay on LOX IMVI melanoma was over 100 µM in each case. Besides, the TGI in the assay with NCI-H23 lung, in the assay with KM12 colon, in the assay with HCC-2998 colon, in the assay on IGROV1 ovarian, with UACC-62 melanoma and in the assay on LOX IMVI melanoma was over 100 µM in each case.
With `COc1cc(/C=C(\OC(C)=O)c2ccc3c(c2)OCO3)cc(OC)c1OC`, the TGI with NCI-H23 lung is 35.4 µM; in the assay on KM12 colon it was 48.7 µM; with HCC-2998 colon it was over 100 µM; in the assay with IGROV1 ovarian, 33.1 µM; in the assay on UACC-62 melanoma, 34.2 µM; with HL-60(TB) leukemia it was over 100 µM. Further, in the assay with LOX IMVI melanoma, the TGI turned out to be 31.3 µM. In addition, the GI50 in the assay on HCC-2998 colon is over 100 µM.
In the case of `COC(=O)C1C(OCc2ccccc2)C2CCC1(OC)C=C2C` (stereo not given), the TGI with NCI-H23 lung was over 100 µM; with KM12 colon it was over 100 µM; with HCC-2998 colon it was over 100 µM; in the assay with IGROV1 ovarian it was over 100 µM; in the assay with UACC-62 melanoma it was over 100 µM; with HL-60(TB) leukemia, 29.8 µM. Besides, the TGI in the assay with LOX IMVI melanoma was over 100 µM.
Take `N#C/C(=C\c1ccc(C(O)P(=O)(O)O)cc1)C(N)=O` (stereo not given): the TGI in the assay with NCI-H23 lung, in the assay on KM12 colon, with HCC-2998 colon, with IGROV1 ovarian, in the assay on UACC-62 melanoma and in the assay with HL-60(TB) leukemia was over 100 µM each time. Also, the TGI with LOX IMVI melanoma was over 100 µM.
